Measurements taken from patent US5204323A, “Heparin and hirudin antidotal compositions and methods” (Ciba-Geigy Corporation, priority 1988, dated 1993).

How the values were obtained:
[1] = tested on: Factor VIII levels in human plasma; assay: DDAVP infusion into human volunteers, Factor VIII levels in plasma; assay type: in vivo; details: DDAVP 0.3 mg/kg in sterile saline infused over 15 minutes, compared to volume matched saline controls, FIG. 7
Method: (§1) 1-Deamino-8-D-arginine vasopressin (DDAVP) ([…] in sterile saline) is infused into human volunteers over a 15 minute period between times 0-15 minutes. Subsequently blood samples are taken and FVIII levels measured (Langdell et al. (1953) J. Lab. Chim. Med. 41, 637) and the correspond. ing effect on hirudin induced elevation of APTT in vitro asessed. The results are shown in FIG. 7 which represent a typical example of ten volunteer studies. […] Results are compared to volume matched saline controls.

[2] = tested on: hirudin induced elevation of APTT in human plasma; assay: Hirudin induced elevation of APTT in vitro in blood samples taken after DDAVP infusion; assay type: in vivo; details: blood samples of human volunteers after DDAVP infusion (0.3 mg/kg, 15 minutes); desulphatohirudin HV1 added in vitro; FIG. 7
Method: The anticoagulant effects of hirudin are measured in vitro on human plasma to which various concentrations of hirudin (in saline) have been added, one minute prior to APTT determination (Activated partial thromboplastin time; means for measuring blood clotting according to Basu et al. (1972) N. Engl. J. Med. 287, 324). Different concentrations of FVIII (reconstituted in water in accordance with the manufacturers specification) are added and the results are shown in FIG. 3 of the accompanying drawings. The anticoagulant effects of hirudin are measured by APTT.
as §1

NC(=O)CC[C@@H]1NC(=O)[C@H](Cc2ccccc2)NC(=O)[C@H](Cc2ccc(O)cc2)NC(=O)CCSSC[C@@H](C(=O)N2CCC[C@H]2C(=O)N[C@H](CCCN=C(N)N)C(=O)NCC(N)=O)NC(=O)[C@H](CC(N)=O)NC1=O [DDAVP, 1-deamino-8-D-arginine vasopressin]
FVIII levels [1]: raised FVIII levels
effect on hirudin induced elevation of APTT in vitro [2]: reduces the degree of anticoagulation induced by hirudin
